From PMC4397719 (Pharmacogenomics and Personalized Medicine, 2015)

Assays:
[1] = test system: CD-3e+ T-cells; assay: Flow cytometry viability; format: cell-based, mouse; settings: 4 hours; for sensitivity of T-cells (viability) compared to other cell populations: 15 nM to 100 μM
[2] = test system: normal immune cells (splenocyte immune cell subpopulations); settings: 15 nM to 100 μM, 4 hours

Row | SMILES | sensitivity of T-cells (viability) compared to other cell populations [1] | toxicity to normal immune cells (viability) [2] | IC50 (viability) ([1]; T-cells, highest concentration of 100 μM, 36 strains)
1 | Cn1cnc2c(F)c(Nc3ccc(Br)cc3Cl)c(C(=O)NOCCO)cc21 [selumetinib] | less sensitive and less variable | less toxic to normal immune cells than the anthracycline agents | 
2 | Cn1c(=O)n(-c2ccc(C(C)(C)C#N)cc2)c2c3cc(-c4cnc5ccccc5c4)ccc3ncc21 [BEZ-235] | less sensitive and less variable | less toxic to normal immune cells than the anthracycline agents | 
3 | COc1cccc2c1C(=O)c1c(O)c3c(c(O)c1C2=O)C[C@@](O)(C(=O)CO)C[C@@H]3O[C@H]1C[C@H](N)[C@H](O)[C@H](C)O1 [doxorubicin] | least sensitive |  | few strains reaching the IC50 at the highest concentration of 100 μM
4 | CC(=O)[C@]1(O)Cc2c(O)c3c(c(O)c2[C@@H](O[C@H]2C[C@H](N)[C@H](O)[C@H](C)O2)C1)C(=O)c1ccccc1C3=O [idarubicin] | less sensitive than B-cells |  | 
